Drawing on patent publication US20060167035A1, “Quinoline derivative, its use, production and pharmaceutical agents containing the latter” (priority 2004, published 2006), this text covers IC50 for six compounds.

The target of one test is T1, recombinant EphB4 kinase (Homo sapiens, UniProt P54760).
T1 construct: purchased ProQinase GmbH, Freiburg, Germany
T1 sequence (P54760 16-987): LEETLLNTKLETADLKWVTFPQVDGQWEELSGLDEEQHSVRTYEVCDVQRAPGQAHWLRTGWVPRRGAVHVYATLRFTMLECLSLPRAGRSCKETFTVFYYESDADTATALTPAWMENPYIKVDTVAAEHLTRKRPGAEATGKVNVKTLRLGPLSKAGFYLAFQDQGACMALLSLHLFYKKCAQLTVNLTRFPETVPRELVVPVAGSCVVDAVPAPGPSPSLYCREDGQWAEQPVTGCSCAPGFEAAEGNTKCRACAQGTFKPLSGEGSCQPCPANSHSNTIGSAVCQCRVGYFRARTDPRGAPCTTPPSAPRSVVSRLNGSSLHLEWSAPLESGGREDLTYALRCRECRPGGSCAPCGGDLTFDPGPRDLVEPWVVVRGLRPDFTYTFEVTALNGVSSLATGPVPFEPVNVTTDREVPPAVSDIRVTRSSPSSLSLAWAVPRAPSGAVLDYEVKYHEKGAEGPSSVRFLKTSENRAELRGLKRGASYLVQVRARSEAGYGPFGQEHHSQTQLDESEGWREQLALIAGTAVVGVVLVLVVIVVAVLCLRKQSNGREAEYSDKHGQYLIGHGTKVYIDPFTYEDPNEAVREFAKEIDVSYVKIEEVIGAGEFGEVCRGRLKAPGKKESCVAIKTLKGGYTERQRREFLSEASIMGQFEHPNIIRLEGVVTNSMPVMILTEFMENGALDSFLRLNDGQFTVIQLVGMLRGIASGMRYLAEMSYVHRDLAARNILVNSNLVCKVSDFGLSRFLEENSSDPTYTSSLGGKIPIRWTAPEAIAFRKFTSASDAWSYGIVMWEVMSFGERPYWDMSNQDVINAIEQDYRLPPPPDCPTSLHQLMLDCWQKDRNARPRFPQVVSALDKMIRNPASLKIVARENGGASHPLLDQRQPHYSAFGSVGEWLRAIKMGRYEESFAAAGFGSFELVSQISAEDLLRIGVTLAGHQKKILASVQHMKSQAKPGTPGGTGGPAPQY
As to the kind of experiment: Test System for EphB4 (HTRF kinase assay). As to conditions: polyGluAlaTyr substrate, 2 μM ATP, HTRF readout, read-out: IC50 of EphB4 kinase inhibition. It is filed as biochemical. The method, then: A mixture that consists of 20 ng/ml of recombinant EphB4 kinase (ProQinase GmbH, Freiburg, Germany), 2.67 μg/ml of polyGluAlaTyr, 2 μM of ATP, 25 mmol of HEPES (pH 7.3), 5 mmol of MgCl2, 1 mmol of MnCl2, 2 mmol of DTT, 0.1 mmol of NaVO4, 1% (v/v) of glycerol, 0.02% NP40, EDTA-free protease inhibitors (Complete Roche Company, 1 tablet in 50 ml) is incubated for 10 minutes at 20° C. Test substances are dissolved in 100% DMSO and introduced in a 0.017× volume before the reaction begins. 60 minutes after 1.7× volume of a solution of 50 mmol of Hepes, pH 7.0, 0.2% BSA, 0.14 μg/ml of PT66-Europium, 3.84 μg/ml of SA-XL665, 75 mmol of EDTA is added, the batch is measured in a Discovery HTRF measuring device of the PerkinElmer Company.
On the technique in general: Time-resolved FRET reads energy transfer from a long-lived donor to a nearby acceptor.
The IC50 is the concentration that inhibits the measured activity by half. On to `Cc1nc2c(ccc3nccc(Nc4cc(O)ccc4C)c32)s1` [Example 2, 4-Methyl-3-(2-methyl-thiazolo[4,5-f]quinolin-9-ylamino)-phenol], for which the IC50 came out at 0.27 µM.

Still in this test, the particulars now being: polyGluAlaTyr substrate, 2 μM ATP, HTRF readout, read-out: IC50 of EphB4 kinase inhibition (upper bound).
For the compound `Cc1ccc(O)cc1Nc1ccnc2ccc3sccc3c12` [Example 1, 4-Methyl-3-(thieno[3,2-f]quinolin-9-ylamino)-phenol], the IC50 was less than 25 µM. Same read-out and setting: the same measure for `Cc1nc2c(ccc3nccc(Nc4cc(O)ccc4C)c32)s1` [Example 2, 4-Methyl-3-(2-methyl-thiazolo[4,5-f]quinolin-9-ylamino)-phenol]: less than 25 µM. Take `Cc1ccc(O)cc1Nc1ccnc2ccc3ccsc3c12` [Example 3, 4-Methyl-3-(thieno[2,3-f]quinolin-9-ylamino)-phenol]: the 50% inhibitory concentration (IC50) is less than 25 µM. The same measure, in the same setting: the same measure for `Cc1ccc(O)cc1Nc1ccnc2ccc3c(c12)CCS3(=O)=O` [Example 4, 3-(3,3-Dioxo-2,3-dihydro-1H-3λ^6-thieno[3,2-f]quinolin-9-ylamino)-4-methyl-phenol]: less than 25 µM; for `O=S1(=O)CCc2c1ccc1nccc(Nc3cccc(O)c3)c21` [Example 5, 3-(3,3-Dioxo-2,3-dihydro-1H-3λ^6-thieno[3,2-f]quinolin-9-ylamino)-phenol]: less than 25 µM; for `Cc1ccc(Nc2ccnc3ccc4c(c23)CCS4(=O)=O)cc1O` [Example 15, 5-(3,3-Dioxo-2,3-dihydro-1H-3λ^6-thieno[3,2-f]quinolin-9-ylamino)-2-methylphenol]: less than 25 µM.
